Read-outs that look alike come from different tables or passages of the source.
Assays:
tubulin [1] = conditions: binding to the colchicine site; read-out: IC50 (inhibits tubulin assembly into microtubules); cited from earlier work
[2] = system: endothelial cell proliferation; conditions: inhibition of endothelial cell proliferation; cited from earlier work
tubulin [3] = assay: Inhibition of polymerisation of tubulin (IPT); assay type: biochemical, sheep
Excerpt: (§1) Brown oil, 89%. Rf 0.3 (Cyclohexane/EtOAc, 7/3). IR (neat, cm^−1): 1609, 1593, 1564, 1428, 1205, 1157. ^1H NMR (300 MHz, CDCl3): 8.08 (d, 1H, J=8.2 Hz), 7.90 (d, 1H, J=8.4 Hz), 7.77-7.72 (ddd, 1H, J=8.2 Hz, J=6.9 Hz, J=1.3 Hz), 7.44 (ddd, 1H, J=8.3 Hz, J=7.0 Hz, J=1.0 Hz), 6.49 (d, 2H, J=2.2 Hz), 6.27 (t, 1H, J=2.2 Hz), 4.90 (q, 1H, J=6.9 Hz), 3.73 (s, 6H), 2.91 (s, 3H), 1.78 (d, 3H, J=6.9 Hz). ^13C NMR (75 MHz, CDCl3): 171.8, 163.8, 161.0 (2C), 150.7, 146.9, 133.2, 128.5, 126.6, 124.7, 121.6, 106.2 (2C), 98.0, 55.4 (2C), 43.4, 26.9, 21.1. m/z MS (APCI^+): 309 (M+H)^+. Cytotoxicity Protocol. U87, H1299 and MDA-MB231 cells are grown in Dulbecco minimal essential medium (DMEM) containing 4.5 g/L glucose and supplemented with 10% foetal calf serum and 1% glutamine. K562 and HCT116 cells are grown in RPMI 1640 medium containing 10% foetal calf serum and 1% glutamine. All the cell lines are maintained in culture at 37° C. in a humid atmosphere containing 5% CO2. The cells are inoculated in 96-well culture plates in an amount of 5000 cells per well in 50 μL of culture medium. After 24 hours of culture, the molecule to be tested, dissolved in DMSO and diluted 1/1000 in suitable culture medium, is added in each well in an amount of 50 μL per well. After 72 hours of incubation, 20 μL of resazurin is added in each well. After 1 hour of incubation, emitted fluorescence is measured at 590 nm after excitation at 560 nm using the Victor fluorescence reader (Perkin-Elmer, USA). Each concentration is tested three times and each experiment is repeated three times. Protocol for Inhibition of Polymerisation of Tubulin. When tubulin is placed at a temperature of 0° C., it is in the form of free dimers. […] The IPT of the various synthesized analogues was determined on a soluble tubulin according to the method of Shelanski^7 from sheep brains where it constitutes 20 to 25% of soluble proteins. The “antitubulin” activity is evaluated according to the method of Gaskin^8 by measuring turbidity, which is proportional to the microtubule concentration in the suspension. Turbidity is measured by absorption of the suspension at 350 nm using a spectrophotometer fitted with a cell thermostatically-controlled at 37° C. The various samples were dissolved in DMSO and incubated 10 minutes at 37° C. then 5 minutes at 0° C. The tubulin assembly and disassembly curves are obtained by absorption kinetics at 350 nm as a function of time. The IC50 determined graphically is defined as the concentration of inhibitor necessary to decrease by 50% the maximum rate of assembly of the control tubulin. In Vitro Biological Study of Compounds of the Present Invention
The most cytotoxic compounds were selected for tests of inhibition of polymerisation of tubulin. These tests were carried out under the direction of Dr J. Dubois at Gif-sur-Yvette, France. Tubulin is purified from ewe brains according to the method of Shelanski^9 by two assembly-disassembly cycles. The stock solution (15-20 mg/mL), stored at −196° C., is thawed and diluted in assembly buffer (0.1 M MES, 0.5 mM MgCl2, 1 mM EGTA, and 1 mM GTP, pH 6.6) to have a final concentration of 10 μM. Tubulin assembly is monitored by fluorescence on 96-well plates according to the method of Barron et al.^10 Inhibitor (DMSO, 1 μL) is added to the tubulin solution (10 μM, 100 μL per well) and the solution is incubated 45 minutes at room temperature. GTP (1 mM final) is then added, the solution is mixed rapidly and fluorescence (λex=350 nm, λem=440 nm) is measured on a Wallac Victor fluorometer (Perkin Elmer). The inhibition of 50% of the maximum rate of assembly (IC50) is determined in duplicate or triplicate on 10 concentrations bracketing the IC50.

many human cancer lines = conditions: read-out: IC50 (cytotoxic); cited from earlier work
[4] = system: H1299 (non-small-cell lung cancer); assay: Cytotoxicity on H1299 line (resazurin, 72 h); assay type: cell-based; conditions: Homo sapiens, NCI-H1299
Excerpt: as §1
(§2) Compounds I-15, I-16 and I-19 were also evaluated on a K562 chronic myeloid leukaemia line and a K562R imatinib-resistant chronic myeloid leukaemia line.

[5] = system: HCT116 human cancer cell line (colorectal cancer); assay: Cytotoxicity on HCT116 human cancer cell line (resazurin, 72 h); assay type: cell-based
Excerpt: as §1
The cytotoxic activity of the compounds was studied in vitro principally on the HCT116 human cancer cell line (colorectal cancer). The line selected for this study was incubated at 37° C. in the presence of one of the compounds added in the culture medium at various concentrations. The inhibitory concentration inducing the death of 50% of the cells (IC50) was determined after 72 hours of incubation (Table 1) for each compound. The set of experiments carried out made it possible to determine the degree of toxicity of the compounds tested by taking isoCA-4 as the reference. […] Lastly, when these first results are examined, it appears that the reduction of the double bond located between the two aromatic nuclei yields “reduced” type II derivatives about 10 times less cytotoxic than their precursors I as we had already noted during the reduction of isoCA-4 derivatives to isoerianin-type derivatives.

[6] = system: K562 (chronic myeloid leukaemia); assay: Cytotoxicity on K562 line (resazurin, 72 h); assay type: cell-based; conditions: Homo sapiens
Excerpt: as §1, §2

[7] = system: K562R imatinib-resistant chronic myeloid leukaemia line; assay: Cytotoxicity on K562R line (72 h); assay type: cell-based; conditions: Homo sapiens, K-562R; Table 2; 50% cell death after 72 hours of incubation
Excerpt: Brown oil, 89%. Rf 0.3 (Cyclohexane/EtOAc, 7/3). IR (neat, cm^−1): 1609, 1593, 1564, 1428, 1205, 1157. ^1H NMR (300 MHz, CDCl3): 8.08 (d, 1H, J=8.2 Hz), 7.90 (d, 1H, J=8.4 Hz), 7.77-7.72 (ddd, 1H, J=8.2 Hz, J=6.9 Hz, J=1.3 Hz), 7.44 (ddd, 1H, J=8.3 Hz, J=7.0 Hz, J=1.0 Hz), 6.49 (d, 2H, J=2.2 Hz), 6.27 (t, 1H, J=2.2 Hz), 4.90 (q, 1H, J=6.9 Hz), 3.73 (s, 6H), 2.91 (s, 3H), 1.78 (d, 3H, J=6.9 Hz). ^13C NMR (75 MHz, CDCl3): 171.8, 163.8, 161.0 (2C), 150.7, 146.9, 133.2, 128.5, 126.6, 124.7, 121.6, 106.2 (2C), 98.0, 55.4 (2C), 43.4, 26.9, 21.1. m/z MS (APCI^+): 309 (M+H)^+. Cytotoxicity Protocol. U87, H1299 and MDA-MB231 cells are grown in Dulbecco minimal essential medium (DMEM) containing 4.5 g/L glucose and supplemented with 10% foetal calf serum and 1% glutamine. K562 and HCT116 cells are grown in RPMI 1640 medium containing 10% foetal calf serum and 1% glutamine. All the cell lines are maintained in culture at 37° C. in a humid atmosphere containing 5% CO2. The cells are inoculated in 96-well culture plates in an amount of 5000 cells per well in 50 μL of culture medium. After 24 hours of culture, the molecule to be tested, dissolved in DMSO and diluted 1/1000 in suitable culture medium, is added in each well in an amount of 50 μL per well. […] After 1 hour of incubation, emitted fluorescence is measured at 590 nm after excitation at 560 nm using the Victor fluorescence reader (Perkin-Elmer, USA). […] The IPT of the various synthesized analogues was determined on a soluble tubulin according to the method of Shelanski^7 from sheep brains where it constitutes 20 to 25% of soluble proteins. The “antitubulin” activity is evaluated according to the method of Gaskin^8 by measuring turbidity, which is proportional to the microtubule concentration in the suspension. Turbidity is measured by absorption of the suspension at 350 nm using a spectrophotometer fitted with a cell thermostatically-controlled at 37° C. […]
as §2

[8] = in the presence of hepatocytes; cited from earlier work
[9] = Table 3, inhibition of 50% of the maximum rate of assembly, tubulin 10 μM, read-out: IPT (IC50)
[10] = Table 2, 50% cell death after 72 hours of incubation, read-out: H1299 IC50
[11] = range given jointly for K562 and H1299 lines, read-out: IC50 (cytotoxicity, H1299)
[12] = Homo sapiens, HCT-116, 72 hours of incubation, read-out: IC50 (cytotoxicity, HCT116)
[13] = Homo sapiens, HCT-116, Table 1, concentration inducing 50% cell death after 72 hours of incubation, read-out: HCT116 IC50
[14] = K562, Table 2, 50% cell death after 72 hours of incubation, read-out: K562 IC50
[15] = range given jointly for K562 and H1299 lines, read-out: IC50 (cytotoxicity, K562)
[16] = Homo sapiens, HCT-116, Table 2, 50% cell death after 72 hours of incubation, read-out: HCT116 IC50

IC50 (tubulin [3]; [9]) [nM]	SMILES	IC50 [5, 12] [nM]	IC50 [5, 13] [nM]	IC50 [6, 14] [nM]	also measured
1800	C=C(c1ccc(OC)cc1)c1nc(C)nc2ccccc12 [Compound I-1, 4-[1-(4-Methoxy-phenyl)-vinyl]-2-methyl-quinazoline]	40	38	34	IC50 [4, 10]: 22 nM; IC50 [4, 11]: 22 to 38 nM; IC50 [6, 15]: 22 to 38 nM
	C=C(c1ccc(OC)c(OC)c1)c1nc(C)nc2ccccc12 [Compound I-2, 4-[1-(3,4-Dimethoxy-phenyl)-vinyl]-2-methyl-quinazoline]		460		
	C=C(c1ccc(OC(F)(F)F)cc1)c1nc(C)nc2ccccc12 [Compound I-3, 2-Methyl-4-(1-(4-(trifluoromethoxy)phenyl)vinyl)quinazoline]		2300		
2900	C=C(c1ccc(SC)cc1)c1nc(C)nc2ccccc12 [Compound I-4, 2-Methyl-4-(1-(4-(methylthio)phenyl)vinyl)quinazoline]		52		
1000	C=C(c1ccc(OC)c(F)c1)c1nc(C)nc2ccccc12 [Compound I-5, 4-[1-(3-Fluoro-4-methoxy-phenyl)-vinyl]-2-methyl-quinazoline]	< 20	18		
	C=C(c1ccc(OC)c(O)c1)c1nc(C)nc2ccccc12 [Compound I-6, 2-Methoxy-5-(1-(2-methylquinazolin-4-yl)vinyl)phenol]	< 20	10		IC50 (tubulin [3]; read-out: IC50 (inhibition of polymerisation of tubulin)): 600 nM
2300	C=C(c1ccc(OC)c(N)c1)c1nc(C)nc2ccccc12 [Compound I-7, 2-Methoxy-5-(1-(2-methylquinazolin-4-yl)vinyl)aniline]	< 20	10		
2200	C=C(c1ccc2ccccc2c1)c1nc(C)nc2ccccc12 [Compound I-8, 2-Methyl-4-(1-(naphthalen-2-yl)vinyl)quinazoline]		130		melting point: 113.6 °C
1900	C=C(c1ccc(OC)cc1)c1nc(Cl)nc2ccccc12 [Compound I-10, 2-Chloro-4-[1-(4-methoxy-phenyl)-vinyl]-quinazoline]	40	34	38	IC50 [4, 10]: 25 nM; IC50 [4, 11]: 22 to 38 nM; IC50 [6, 15]: 22 to 38 nM
	C=C(c1ccc(OC)c(OC)c1)c1nc(Cl)nc2ccccc12 [Compound I-11, 2-Chloro-4-[1-(3,4-dimethoxy-phenyl)-vinyl]-quinazoline]		700		
	C=C(c1cc(OC)c(OC)c(OC)c1)c1nc(Cl)nc2ccccc12 [Compound I-12, 2-Chloro-4-[1-(3,4,5-trimethoxy-phenyl)-vinyl]-quinazoline]		900		melting point: 135 to 136 °C
1200	C=C(c1ccc(OC)c(C#CCO)c1)c1nc(C)nc2ccccc12 [Compound I-15, 3-(2-Methoxy-5-(1-(2-methylquinazolin-4-yl)vinyl)phenyl)prop-2-yn-1-ol]	< 20		8	IC50 [5, 16]: 1.5 nM; IC50 [7]: ≤ 1 nM
960	C=C(c1ccc(OC)cc1)c1cc(C#N)nc2ccccc12 [Compound I-16, 4-(1-(4-Methoxyphenyl)vinyl)quinoline-2-carbonitrile]	< 20		9	IC50 [5, 16]: 1.6 nM; IC50 [7]: ≤ 1 nM
	C=C(c1ccc(OC)cc1)c1cc(Cl)c2ccccc2n1 [Compound I-17, 4-Chloro-2-(1-(4-methoxyphenyl)vinyl)quinoline]		95		
	C=C(c1ccc(OC)cc1)c1nc(C)cc2ccccc12 [Compound I-18, 1-(1-(4-Methoxyphenyl)vinyl)-3-methylisoquinoline]		87		
	COc1ccc(C(C)c2nc(C)nc3ccccc23)cc1 (stereo not drawn) [II-1, 4-[1-(4-Methoxy-phenyl)-ethyl]-2-methyl-quinazoline]		250		
	COc1ccc(C(C)c2nc(C)nc3ccccc23)cc1OC (stereo not drawn) [II-2, 4-[1-(3,4-Dimethoxy-phenyl)-ethyl]-2-methyl-quinazoline]		950		

SMILES	IC50 (tubulin [3]; [9]) [nM]	IC50 [5, 12] [nM]	IC50 [5, 13] [nM]	IC50 [6, 14] [nM]	also measured
COc1ccc(/C=C\c2cc(OC)c(OC)c(OC)c2)cc1O [CA-4, combretastatin A-4]	[…]				IC50 (tubulin [1]): […]; anti-vascular activity in vitro (in words) [2]: nanomolar; IC50 (many human cancer lines): […]
C=C(c1ccc(OC)cc1)c1cc(C)nc2ccccc12 [Compound I-19, 4-(1-(4-Methoxyphenyl)vinyl)-2-methylquinoline]	1090	< 20	≤ 1	17	IC50 ([5]; Table 2, 50% cell death after 72 hours of incubation, read-out: HCT116 IC50): ≤ 1 nM; cytotoxic activities (in words) ([5]; cell line not given): sub-nanomolar; IC50 [7]: 0.7 nM
C=C(c1ccc(OC)c(O)c1)c1cc(OC)c(OC)c(OC)c1 [isoCA-4, Isocombretastatin A-4, reference compound]	1000			4	IC50 [4, 10]: 5 nM; IC50 ([5]; Homo sapiens, HCT-116, 72 h, read-out: HCT116 IC50 (nM)): 2 nM; metabolized [8]: < 10%
